Assays:
[1] = Rat pharmacokinetics, intravenous dosing; format: in vivo, Sprague-Dawley rats; settings: male, Sprague-Dawley, IV bolus dosing at 3.0 mg/kg, plasma
Description: Intravenous dosing: Compounds were formulated at 1.0 mg/mL in a solution comprising 5% polyethylene glycol 400 and 95% (12% (w/v) sulfobutyl-β-cyclodextrin in water) (v/v). Formulated compounds were sterile filtered through a 0.22 micron filter before dosing. Compounds were administered to male, 7-11-week-old Sprague-Dawley rats by jugular vein cannula infusion over 30 minutes at a dose of 1 mg/kg. Oral dosing: Compounds were formulated at 1.0 mg/mL in a solution comprising 5% polyethylene glycol 400 and 95% (12% (w/v) sulfobutyl-β-cyclodextrin in water) (v/v). Formulated compounds were administered to male, 7-11 week old Sprague-Dawley rats by oral gavage at a dose of 10 mg/kg or 3 mg/kg.
Sample collection: Blood collections of about 0.2 mL per time point were performed from jugular vein or other suitable site of each animal, into pre-chilled commercial EDTA-K2 tubes and placed on wet ice until centrifugation. Blood samples were processed for plasma by centrifugation at approximately 4° C., 3,200 g for 10 min. Plasma was collected and transferred into pre-labeled 96 well plate or polypropylene tubes, quick frozen over dry ice and kept at −60° C. or lower until
Data analysis: Plasma concentration versus time data was plotted in graph and analyzed by non-compartmental approaches using the Phoenix WinNonlin 6.3 software program. Related PK parameters were calculated according to dosing route, e.g., CL, Vdss and C0 for intravenous administration, Cmax, Tmax or % F for extravascular administration, and T1/2, AUC(0-t), AUC(0-inf), MRT(0-t), MRT(0-inf) for all routes.

human GLP-1R receptor = target: T1, human GLP-1R receptor (Homo sapiens, UniProt P43220); assay: GLP-1R low expression cell assay (cAMP TR-FRET, CHO-K1_hGLP-1Rlow_clone10 cells); format: cell-based; settings: for EC50: cAMP TR-FRET, 30 min at 25° C.; for Emax: maximum activation relative to control GLP-1 peptide agonist
T1 construct: expressed in transfected cells
Outline: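 Readout is cAMP TR-FRET after 30 min compound stimulation at 25 °C of a low-GLP-1R-expressing CHO-K1 clone (1,000 cells/well), with 10-point 3-fold serial dilutions. Percent activation versus a control GLP-1 peptide, from duplicates, was Hill-fitted to give EC50.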

T1 sequence (P43220 24-463): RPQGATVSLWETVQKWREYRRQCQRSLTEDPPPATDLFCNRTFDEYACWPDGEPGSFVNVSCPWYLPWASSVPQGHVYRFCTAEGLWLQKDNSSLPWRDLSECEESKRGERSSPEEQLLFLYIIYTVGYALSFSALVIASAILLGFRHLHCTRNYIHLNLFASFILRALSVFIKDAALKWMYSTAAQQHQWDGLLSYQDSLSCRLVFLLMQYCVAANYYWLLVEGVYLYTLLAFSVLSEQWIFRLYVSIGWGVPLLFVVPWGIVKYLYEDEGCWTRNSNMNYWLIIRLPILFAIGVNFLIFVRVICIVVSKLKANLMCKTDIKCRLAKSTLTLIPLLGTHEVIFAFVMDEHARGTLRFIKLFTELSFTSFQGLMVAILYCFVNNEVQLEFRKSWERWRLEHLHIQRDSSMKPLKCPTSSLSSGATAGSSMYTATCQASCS

| Compound | AUC [1] [ng·h/mL] | C0 [1] [ng/mL] | half-life ([1]; read-out: Rat T1/2) [h] | EC50 (human GLP-1R receptor) [nM] | Emax (human GLP-1R receptor) [%] |
| --- | --- | --- | --- | --- | --- |
| COc1cc(C(=O)O)cc2c1nc(CN1CCC(c3cccc(OCc4ccc(C#N)cc4F)n3)CC1)n2Cc1cncs1 [Compound 1, 2-((4-(6-((4-Cyano-2-fluorobenzyl)oxy)pyridin-2-yl)piperidin-1-yl)methyl)-4-methoxy-1-(thiazol-5-ylmethyl)-1H-benzo[d]imidazole-6-carboxylic acid] | < 500 | > 2000 | < 1.5 | < 10 | > 85 |
| COc1cc(C(=O)O)cc2c1nc(CN1CCC(c3cccc(OCc4ccc(C#N)cc4F)n3)CC1)n2C[C@@H]1CCO1 [Compound 8, (S)-2-((4-(6-((4-Cyano-2-fluorobenzyl)oxy)pyridin-2-yl)piperidin-1-yl)methyl)-4-methoxy-1-(oxetan-2-ylmethyl)-1H-benzo[d]imidazole-6-carboxylic acid] | – | – | – | < 10 | > 85 |
